Test results from PubChem BioAssay (NCI).
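Each compound was tested at five concentrations against cells in 96-well plates for 48 hours. TGI is the concentration that stops growth completely.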

How the values were obtained:
Test in all cases: NCI anticancer screen, dose series, 48 h
786-0 renal = test system: 786-0 renal
A498 renal = test system: A498 renal
A549 NSCLC = test system: A549 NSCLC
ACHN renal = test system: ACHN renal
BT-549 breast = test system: BT-549 breast
CAKI-1 renal = test system: CAKI-1 renal
CCRF-CEM leukemia = test system: CCRF-CEM leukemia
COLO 205 colon = test system: COLO 205 colon
DU-145 prostate = test system: DU-145 prostate
HCT-116 colon = test system: HCT-116 colon
HL-60(TB) leukemia = test system: HL-60(TB) leukemia
HOP-62 NSCLC = test system: HOP-62 NSCLC
HOP-92 NSCLC = test system: HOP-92 NSCLC
HS 578T breast = test system: HS 578T breast
HT29 colon = test system: HT29 colon
IGROV1 ovarian = test system: IGROV1 ovarian
K-562 leukemia = test system: K-562 leukemia
KM12 colon = test system: KM12 colon
LOX IMVI melanoma = test system: LOX IMVI melanoma
M14 melanoma = test system: M14 melanoma
MCF7 breast = test system: MCF7 breast
MDA-MB-231 breast = test system: MDA-MB-231 breast
MDA-MB-435 = test system: MDA-MB-435
MDA-N = test system: MDA-N
MOLT-4 leukemia = test system: MOLT-4 leukemia
NCI-H226 lung = test system: NCI-H226 lung
NCI-H23 lung = test system: NCI-H23 lung
NCI-H460 lung = test system: NCI-H460 lung
NCI/ADR-RES ovarian = test system: NCI/ADR-RES ovarian
OVCAR-3 ovarian = test system: OVCAR-3 ovarian
OVCAR-4 ovarian = test system: OVCAR-4 ovarian
OVCAR-5 ovarian = test system: OVCAR-5 ovarian
PC-3 prostate = test system: PC-3 prostate
RPMI-8226 leukemia = test system: RPMI-8226 leukemia
RXF 393 renal = test system: RXF 393 renal
SF-268 CNS = test system: SF-268 CNS
SF-295 CNS = test system: SF-295 CNS
SF-539 CNS = test system: SF-539 CNS
SK-MEL-2 melanoma = test system: SK-MEL-2 melanoma
SK-MEL-28 melanoma = test system: SK-MEL-28 melanoma
SK-MEL-5 melanoma = test system: SK-MEL-5 melanoma
SK-OV-3 ovarian = test system: SK-OV-3 ovarian
SN12C renal = test system: SN12C renal
SNB-75 CNS = test system: SNB-75 CNS
SR leukemia = test system: SR leukemia
SW-620 colon = test system: SW-620 colon
TK-10 renal = test system: TK-10 renal
U251 CNS = test system: U251 CNS
UACC-257 melanoma = test system: UACC-257 melanoma
UACC-62 melanoma = test system: UACC-62 melanoma
UO-31 renal = test system: UO-31 renal
EKVX NSCLC = test system: EKVX NSCLC
HCC-2998 colon = test system: HCC-2998 colon
HCT-15 colon = test system: HCT-15 colon
MALME-3M melanoma = test system: MALME-3M melanoma
NCI-H522 lung = test system: NCI-H522 lung
OVCAR-8 ovarian = test system: OVCAR-8 ovarian
SNB-19 CNS = test system: SNB-19 CNS
T-47D breast = test system: T-47D breast

CC1=Nc2c(C#N)ncn2N=C(C)C1
TGI (786-0 renal): > 100 µM
TGI (A498 renal): > 100 µM
TGI (A549 NSCLC): > 100 µM
TGI (ACHN renal): > 100 µM
TGI (BT-549 breast): > 100 µM
TGI (CAKI-1 renal): > 100 µM
TGI (CCRF-CEM leukemia): > 100 µM
TGI (COLO 205 colon): > 100 µM
TGI (DU-145 prostate): > 100 µM
TGI (HCT-116 colon): > 100 µM
TGI (HL-60(TB) leukemia): > 100 µM
TGI (HOP-62 NSCLC): > 100 µM
TGI (HOP-92 NSCLC): > 100 µM
TGI (HS 578T breast): > 100 µM
TGI (HT29 colon): > 100 µM
TGI (IGROV1 ovarian): > 100 µM
TGI (K-562 leukemia): > 100 µM
TGI (KM12 colon): > 100 µM
TGI (LOX IMVI melanoma): > 100 µM
TGI (M14 melanoma): > 100 µM
TGI (MCF7 breast): > 100 µM
TGI (MDA-MB-231 breast): > 100 µM
TGI (MDA-MB-435): > 100 µM
TGI (MDA-N): > 100 µM
TGI (MOLT-4 leukemia): > 100 µM
TGI (NCI-H226 lung): > 100 µM
TGI (NCI-H23 lung): > 100 µM
TGI (NCI-H460 lung): > 100 µM
TGI (NCI/ADR-RES ovarian): > 100 µM
TGI (OVCAR-3 ovarian): > 100 µM
TGI (OVCAR-4 ovarian): > 100 µM
TGI (OVCAR-5 ovarian): > 100 µM
TGI (PC-3 prostate): > 100 µM
TGI (RPMI-8226 leukemia): > 100 µM
TGI (RXF 393 renal): > 100 µM
TGI (SF-268 CNS): > 100 µM
TGI (SF-295 CNS): > 100 µM
TGI (SF-539 CNS): > 100 µM
TGI (SK-MEL-2 melanoma): > 100 µM
TGI (SK-MEL-28 melanoma): > 100 µM
TGI (SK-MEL-5 melanoma): > 100 µM
TGI (SK-OV-3 ovarian): > 100 µM
TGI (SN12C renal): > 100 µM
TGI (SNB-75 CNS): > 100 µM
TGI (SR leukemia): > 100 µM
TGI (SW-620 colon): > 100 µM
TGI (TK-10 renal): > 100 µM
TGI (U251 CNS): > 100 µM
TGI (UACC-257 melanoma): > 100 µM
TGI (UACC-62 melanoma): > 100 µM
TGI (UO-31 renal): > 100 µM

Clc1ccc2nc(CC3CCCC3)[nH]c2c1
TGI (786-0 renal): 33.4 µM
TGI (A549 NSCLC): 60.8 µM
TGI (ACHN renal): 32.6 µM
TGI (CAKI-1 renal): 27.6 µM
TGI (CCRF-CEM leukemia): > 100 µM
TGI (COLO 205 colon): 27.9 µM
TGI (DU-145 prostate): 54.6 µM
TGI (EKVX NSCLC): 43.5 µM
TGI (HCC-2998 colon): 41.8 µM
TGI (HCT-116 colon): 32 µM
TGI (HCT-15 colon): 22.9 µM
TGI (HOP-62 NSCLC): 32.7 µM
TGI (HOP-92 NSCLC): 34 µM
TGI (HT29 colon): 33.5 µM
TGI (IGROV1 ovarian): 19 µM
TGI (K-562 leukemia): 22.1 µM
TGI (KM12 colon): 38.8 µM
TGI (LOX IMVI melanoma): 29.9 µM
TGI (M14 melanoma): 38.2 µM
TGI (MALME-3M melanoma): 45.1 µM
TGI (MCF7 breast): 22 µM
TGI (MDA-MB-231 breast): 43.6 µM
TGI (MDA-MB-435): 25.9 µM
TGI (MDA-N): 38.5 µM
TGI (MOLT-4 leukemia): 35 µM
TGI (NCI-H226 lung): 38.4 µM
TGI (NCI-H23 lung): 30.6 µM
TGI (NCI-H460 lung): 46.9 µM
TGI (NCI-H522 lung): 21.2 µM
TGI (NCI/ADR-RES ovarian): 35.6 µM
TGI (OVCAR-3 ovarian): 22.7 µM
TGI (OVCAR-4 ovarian): 45.8 µM
TGI (OVCAR-5 ovarian): 67.5 µM
TGI (OVCAR-8 ovarian): > 100 µM
TGI (PC-3 prostate): 71 µM
TGI (RPMI-8226 leukemia): 50.3 µM
TGI (RXF 393 renal): 32.1 µM
TGI (SF-268 CNS): 40.2 µM
TGI (SF-295 CNS): 34.7 µM
TGI (SF-539 CNS): 51.7 µM
TGI (SK-MEL-2 melanoma): 41.2 µM
TGI (SK-MEL-28 melanoma): 63.9 µM
TGI (SK-MEL-5 melanoma): 24.9 µM
TGI (SK-OV-3 ovarian): 49.1 µM
TGI (SN12C renal): 36.8 µM
TGI (SNB-19 CNS): 64 µM
TGI (SNB-75 CNS): 56 µM
TGI (SR leukemia): 26.5 µM
TGI (SW-620 colon): > 100 µM
TGI (T-47D breast): 72.5 µM
TGI (TK-10 renal): 70.2 µM
TGI (U251 CNS): 36.5 µM
TGI (UACC-257 melanoma): > 100 µM
TGI (UACC-62 melanoma): 33.4 µM

CC(=O)NC(C)c1ccc(N=NN2CCCC2)cc1 (stereo not given)
TGI (786-0 renal): > 100 µM
TGI (A498 renal): > 100 µM
TGI (A549 NSCLC): > 100 µM
TGI (ACHN renal): > 100 µM
TGI (CAKI-1 renal): > 100 µM
TGI (CCRF-CEM leukemia): > 100 µM
TGI (COLO 205 colon): > 100 µM
TGI (DU-145 prostate): > 100 µM
TGI (EKVX NSCLC): > 100 µM
TGI (HCC-2998 colon): > 100 µM
TGI (HCT-116 colon): > 100 µM
TGI (HCT-15 colon): > 100 µM
TGI (HL-60(TB) leukemia): > 100 µM
TGI (HOP-62 NSCLC): > 100 µM
TGI (HOP-92 NSCLC): > 100 µM
TGI (HS 578T breast): > 100 µM
TGI (HT29 colon): > 100 µM
TGI (IGROV1 ovarian): > 100 µM
TGI (KM12 colon): > 100 µM
TGI (LOX IMVI melanoma): > 100 µM
TGI (M14 melanoma): > 100 µM
TGI (MALME-3M melanoma): > 100 µM
TGI (MCF7 breast): > 100 µM
TGI (MDA-MB-231 breast): > 100 µM
TGI (MDA-MB-435): > 100 µM
TGI (MDA-N): > 100 µM
TGI (NCI-H226 lung): > 100 µM
TGI (NCI-H23 lung): > 100 µM
TGI (NCI-H522 lung): > 100 µM
TGI (NCI/ADR-RES ovarian): > 100 µM
TGI (OVCAR-3 ovarian): > 100 µM
TGI (OVCAR-4 ovarian): > 100 µM
TGI (OVCAR-5 ovarian): > 100 µM
TGI (OVCAR-8 ovarian): > 100 µM
TGI (PC-3 prostate): > 100 µM
TGI (RXF 393 renal): > 100 µM
TGI (SF-268 CNS): > 100 µM
TGI (SF-295 CNS): > 100 µM
TGI (SF-539 CNS): > 100 µM
TGI (SK-MEL-2 melanoma): > 100 µM
TGI (SK-MEL-28 melanoma): > 100 µM
TGI (SK-MEL-5 melanoma): > 100 µM
TGI (SK-OV-3 ovarian): > 100 µM
TGI (SN12C renal): > 100 µM
TGI (SNB-19 CNS): > 100 µM
TGI (SNB-75 CNS): > 100 µM
TGI (SW-620 colon): > 100 µM
TGI (T-47D breast): > 100 µM
TGI (TK-10 renal): > 100 µM
TGI (U251 CNS): > 100 µM
TGI (UACC-257 melanoma): > 100 µM
TGI (UO-31 renal): > 100 µM

Clc1ccc(/C=N/Nc2nnc3c4ccccc4c4ncccc4c3n2)cc1
TGI (786-0 renal): > 10 µM
TGI (A549 NSCLC): > 10 µM
TGI (CAKI-1 renal): > 10 µM
TGI (COLO 205 colon): > 10 µM
TGI (DU-145 prostate): > 10 µM
TGI (EKVX NSCLC): > 10 µM
TGI (HCC-2998 colon): > 10 µM
TGI (HCT-15 colon): > 10 µM
TGI (HL-60(TB) leukemia): > 10 µM
TGI (HOP-62 NSCLC): > 10 µM
TGI (HT29 colon): > 10 µM
TGI (IGROV1 ovarian): > 10 µM
TGI (K-562 leukemia): > 10 µM
TGI (KM12 colon): > 10 µM
TGI (M14 melanoma): > 10 µM
TGI (MALME-3M melanoma): > 10 µM
TGI (MCF7 breast): > 10 µM
TGI (MDA-MB-231 breast): > 10 µM
TGI (MDA-N): > 10 µM
TGI (MOLT-4 leukemia): > 10 µM
TGI (NCI-H23 lung): > 10 µM
TGI (OVCAR-8 ovarian): > 10 µM
TGI (PC-3 prostate): > 10 µM
TGI (RPMI-8226 leukemia): > 10 µM
TGI (RXF 393 renal): > 10 µM
TGI (SF-268 CNS): > 10 µM
TGI (SF-295 CNS): > 10 µM
TGI (SK-MEL-28 melanoma): > 10 µM
TGI (SK-MEL-5 melanoma): > 10 µM
TGI (SK-OV-3 ovarian): > 10 µM
TGI (SN12C renal): > 10 µM
TGI (SNB-75 CNS): > 10 µM
TGI (SR leukemia): > 10 µM
TGI (SW-620 colon): > 10 µM
TGI (T-47D breast): > 10 µM
TGI (TK-10 renal): > 10 µM
TGI (UACC-257 melanoma): > 10 µM
TGI (UACC-62 melanoma): > 10 µM
